Reference: ChEMBL document CHEMBL1201862, “PubChem BioAssay data set” (2004)
Active and inactive are the calls of the source.

Tests used:
[1] = M. tuberculosis H37Rv growth inhibitors, H37Rv strain (AID 1626); type: functional
[2] = target: T1, Estrogen receptor beta (Homo sapiens, UniProt Q92731);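 further: recombinant ER-beta bound to coactivator SRC1 peptide in presence of estradiol agonist; inhibitors block coactivator peptide binding and lower the FRET signal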
[3] = target: T1, Estrogen receptor beta; assay: blockers of SRC-3 recruitment to ERβ – biochemical, ELISA, streptavidin-HRP readout, orthogonal assay, confirmation (AID 1060)
[4] = target: T2, Bcl-2-related protein A1 (Mus musculus, UniProt Q07440); type: functional;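 further: confirmatory dose–response counterscreen on Bfl-1, used to check hits from a UBC13 polyubiquitin inhibitor campaign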
T2 sequence (Q07440 whole entry): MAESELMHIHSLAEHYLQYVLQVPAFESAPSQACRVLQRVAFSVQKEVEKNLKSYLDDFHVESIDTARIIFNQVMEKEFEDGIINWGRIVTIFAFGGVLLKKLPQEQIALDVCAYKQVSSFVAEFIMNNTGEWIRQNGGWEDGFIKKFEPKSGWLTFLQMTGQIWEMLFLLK

[5] = target: T3, Ubiquitin-conjugating enzyme E2 N (Homo sapiens, UniProt P61088); type: functional
T3 sequence (P61088 whole entry): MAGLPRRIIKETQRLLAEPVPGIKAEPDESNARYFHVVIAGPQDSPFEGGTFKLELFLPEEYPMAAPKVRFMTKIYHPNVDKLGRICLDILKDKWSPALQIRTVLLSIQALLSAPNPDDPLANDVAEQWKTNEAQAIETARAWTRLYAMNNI

[6] = target: T3, Ubiquitin-conjugating enzyme E2 N; type: functional; remark: listed apart in the source
[7] = target: T4, Estrogen receptor (Homo sapiens, UniProt P03372);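 further: potency for inhibiting coactivator peptide recruitment to the receptor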
T4 sequence (P03372 whole entry): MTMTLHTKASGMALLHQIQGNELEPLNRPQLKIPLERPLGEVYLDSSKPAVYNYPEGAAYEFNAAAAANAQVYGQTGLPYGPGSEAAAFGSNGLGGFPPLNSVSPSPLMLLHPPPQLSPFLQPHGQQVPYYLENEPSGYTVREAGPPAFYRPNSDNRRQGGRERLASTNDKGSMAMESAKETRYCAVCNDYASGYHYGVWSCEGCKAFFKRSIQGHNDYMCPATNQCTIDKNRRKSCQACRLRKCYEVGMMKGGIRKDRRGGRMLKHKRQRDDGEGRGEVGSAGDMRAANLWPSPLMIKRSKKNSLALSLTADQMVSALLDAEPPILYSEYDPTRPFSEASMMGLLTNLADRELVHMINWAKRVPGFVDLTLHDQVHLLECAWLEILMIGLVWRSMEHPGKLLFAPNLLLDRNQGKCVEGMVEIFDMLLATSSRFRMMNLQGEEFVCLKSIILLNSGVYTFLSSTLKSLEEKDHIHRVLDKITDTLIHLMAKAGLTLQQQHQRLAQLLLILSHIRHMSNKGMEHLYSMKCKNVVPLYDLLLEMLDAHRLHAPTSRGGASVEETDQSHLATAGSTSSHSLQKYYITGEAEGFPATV

[8] = target: Glyceraldehyde-3-phosphate dehydrogenase (Homo sapiens, UniProt P04406)
[9] = target: T5, Alkaline phosphatase, tissue-nonspecific isozyme (Homo sapiens, UniProt P05186); assay: potency against alkaline phosphatase TNAP – biochemical, luminescent, dose response, SAR follow-up (AID 1056)
T5 sequence (P05186 whole entry): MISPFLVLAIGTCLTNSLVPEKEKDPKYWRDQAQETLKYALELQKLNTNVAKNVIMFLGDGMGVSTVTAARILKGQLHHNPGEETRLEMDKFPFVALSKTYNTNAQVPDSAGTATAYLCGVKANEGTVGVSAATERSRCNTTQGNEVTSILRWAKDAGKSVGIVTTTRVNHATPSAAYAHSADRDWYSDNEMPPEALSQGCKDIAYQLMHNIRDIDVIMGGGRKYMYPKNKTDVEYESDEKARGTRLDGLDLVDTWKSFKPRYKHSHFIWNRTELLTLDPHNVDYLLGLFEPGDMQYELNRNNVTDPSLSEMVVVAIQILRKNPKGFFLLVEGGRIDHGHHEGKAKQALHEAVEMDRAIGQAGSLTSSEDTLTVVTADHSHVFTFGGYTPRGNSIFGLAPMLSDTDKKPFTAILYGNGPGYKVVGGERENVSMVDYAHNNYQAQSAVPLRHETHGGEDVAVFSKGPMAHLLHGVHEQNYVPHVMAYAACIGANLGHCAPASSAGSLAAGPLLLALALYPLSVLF

[10] = tested on: Streptococcus sp. 'group A'; assay: Streptococcus pyogenes SK(-)GAS viability under kanamycin – luminescence, BacTiterGlo, confirmation, counter-screen for streptokinase expression inhibitor project, dose response (AID 1900); type: functional, organism-based
[11] = tested on: Streptococcus; assay: GAS UMAA2166 growth inhibition – luminescence, BacTiterGlo, counter-screen for streptokinase expression inhibitor project, dose response (AID 1915); type: functional, organism-based;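 further: potency for reduction of bacterial viability or growth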
[12] = target: T6, Short transient receptor potential channel 4 (Mus musculus, UniProt Q9QUQ5); assay: calcium entry via TRPC4 opening agents – cell-based, HEK293 TRPC4/mu-opioid, Fluo-4 calcium, dose response (AID 434937); type: functional
T6 sequence (Q9QUQ5 whole entry): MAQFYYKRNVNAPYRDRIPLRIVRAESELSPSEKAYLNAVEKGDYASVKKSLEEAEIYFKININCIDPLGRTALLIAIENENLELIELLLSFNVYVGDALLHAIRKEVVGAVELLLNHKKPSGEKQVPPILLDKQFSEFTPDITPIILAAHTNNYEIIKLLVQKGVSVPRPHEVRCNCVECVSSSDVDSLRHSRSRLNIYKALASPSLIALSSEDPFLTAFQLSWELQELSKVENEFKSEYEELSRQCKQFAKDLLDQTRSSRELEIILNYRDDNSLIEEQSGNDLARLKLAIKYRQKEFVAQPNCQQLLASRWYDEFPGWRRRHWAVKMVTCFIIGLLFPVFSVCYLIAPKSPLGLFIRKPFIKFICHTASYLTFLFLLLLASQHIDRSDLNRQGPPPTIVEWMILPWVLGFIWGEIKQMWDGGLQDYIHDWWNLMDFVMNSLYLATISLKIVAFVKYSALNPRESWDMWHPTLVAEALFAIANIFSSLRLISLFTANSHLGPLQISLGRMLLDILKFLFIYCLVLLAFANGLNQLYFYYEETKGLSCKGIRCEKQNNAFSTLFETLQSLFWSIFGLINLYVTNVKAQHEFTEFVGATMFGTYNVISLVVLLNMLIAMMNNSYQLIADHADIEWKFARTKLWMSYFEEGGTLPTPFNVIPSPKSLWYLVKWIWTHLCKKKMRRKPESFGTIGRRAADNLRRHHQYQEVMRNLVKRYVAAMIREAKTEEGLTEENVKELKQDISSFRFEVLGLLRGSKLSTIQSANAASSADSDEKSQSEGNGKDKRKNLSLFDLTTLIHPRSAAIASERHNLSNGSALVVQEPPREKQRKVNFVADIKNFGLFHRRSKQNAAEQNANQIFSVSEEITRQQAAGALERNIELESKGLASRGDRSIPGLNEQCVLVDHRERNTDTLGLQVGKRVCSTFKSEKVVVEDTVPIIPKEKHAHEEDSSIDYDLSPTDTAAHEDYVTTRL

[13] = tested on: Vero; assay: cells; type: functional, cell-based; details: Chlorocebus sabaeus
[14] = tested on: Vero; assay: cells; type: functional; details: Chlorocebus sabaeus
[15] = target: T7, Mannose-6-phosphate isomerase (Homo sapiens, UniProt P34949); assay: MPI inhibition at elevated mannose 6-phosphate – biochemical, fluorescence intensity, high mannose 6-phosphate, primary screen (AID 1220)
T7 sequence (P34949 whole entry): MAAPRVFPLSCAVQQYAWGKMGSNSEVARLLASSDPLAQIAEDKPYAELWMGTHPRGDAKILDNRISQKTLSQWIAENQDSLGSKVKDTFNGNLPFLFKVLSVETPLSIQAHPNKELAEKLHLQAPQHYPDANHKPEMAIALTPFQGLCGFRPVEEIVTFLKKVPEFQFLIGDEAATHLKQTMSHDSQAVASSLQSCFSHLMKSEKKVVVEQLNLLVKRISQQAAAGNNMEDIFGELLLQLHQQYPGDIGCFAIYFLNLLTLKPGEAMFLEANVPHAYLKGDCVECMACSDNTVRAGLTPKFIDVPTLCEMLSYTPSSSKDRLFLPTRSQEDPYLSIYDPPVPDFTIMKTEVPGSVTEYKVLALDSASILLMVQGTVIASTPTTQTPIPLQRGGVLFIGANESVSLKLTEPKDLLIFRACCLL

[16] = tested on: H9c2; assay: cells; type: functional, cell-based; details: Rattus norvegicus, H9c2, Myocardium;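 further: confirmatory concentration-response retest of ultra-high-throughput screening hits for modulation of myocardial damage; cell death induced by hydrogen peroxide oxidative stress; compound pretreatment for 60 min then peroxide exposure for 2 h; potency is for protecting the cells against peroxide damage rather than for killing them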
[17] = NIH-3T3 fibroblast cytotoxicity, dose response, cytotoxicity control, cell-based, fluorescence, Alamar Blue, secondary assay (AID 2327); type: functional;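 further: NIH-3T3 mouse fibroblasts cultured with fluconazole at 8 µg/mL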
[18] = luciferase reporter signal suppression in cells – H4 neuroglioma cells, luminescence, dose response (AID 1990); type: functional, cell-based
[19] = cells; type: functional, cell-based
[20] = Luminescence Cell-Based Dose Response HTS to Identify Inhibitors of 5'UTR Stem-Loop Driven Prion Protein mRNA Translation in H4 Neuroglioblastoma Cells. [Related pubchem assays: 1827 (Project Summary), 1813 (Primary HTS)]; type: functional
[21] = alpha-synuclein stem-loop luciferase translation blockers – H4 neuroglioma cells, luminescence, confirmation (AID 1988); type: functional, cell-based
[22] = fluconazole-exposed Candida albicans growth modulators – fluorescence, retest, confirmation (AID 2467); type: functional, cell-based
[23] = cells; type: functional, cell-based; remark: listed apart in the source
[24] = target: Induced myeloid leukemia cell differentiation protein Mcl-1 (Homo sapiens, UniProt Q07820); type: functional
[25] = tested on: Vero; assay: viability of Vero cells under compound – cytotoxicity control for flavivirus capping enzyme inhibitors (AID 588742); type: functional; details: Chlorocebus sabaeus
[26] = target: Genome polyprotein (dengue virus type 2, UniProt P29990); assay: flavivirus cap methylation enzyme inhibition – biochemical, confirmation dose response, primary screen (AID 588689); type: functional
[27] = viability loss in THP-1 monocytes – THP-1 cells, cytotoxicity control for Vif-APOBEC3G degradation inhibitor project, dose response (AID 1117359); type: functional; details: THP-1

T1 sequence (Q92731 whole entry): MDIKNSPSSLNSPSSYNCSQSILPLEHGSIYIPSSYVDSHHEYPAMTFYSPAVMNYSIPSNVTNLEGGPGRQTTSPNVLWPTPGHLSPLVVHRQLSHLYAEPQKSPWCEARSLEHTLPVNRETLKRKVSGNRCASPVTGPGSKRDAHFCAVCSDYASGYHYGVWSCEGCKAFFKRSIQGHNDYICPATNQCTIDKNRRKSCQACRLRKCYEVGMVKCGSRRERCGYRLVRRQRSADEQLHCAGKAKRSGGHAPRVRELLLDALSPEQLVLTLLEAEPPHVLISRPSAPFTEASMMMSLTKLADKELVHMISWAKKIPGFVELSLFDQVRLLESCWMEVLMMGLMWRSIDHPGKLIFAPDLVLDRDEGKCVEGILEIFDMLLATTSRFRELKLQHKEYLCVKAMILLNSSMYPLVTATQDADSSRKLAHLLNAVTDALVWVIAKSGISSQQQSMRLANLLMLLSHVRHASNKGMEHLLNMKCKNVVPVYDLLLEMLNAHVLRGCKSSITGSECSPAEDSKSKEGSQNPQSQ
Glyceraldehyde-3-phosphate dehydrogenase, sequence (P04406 whole entry): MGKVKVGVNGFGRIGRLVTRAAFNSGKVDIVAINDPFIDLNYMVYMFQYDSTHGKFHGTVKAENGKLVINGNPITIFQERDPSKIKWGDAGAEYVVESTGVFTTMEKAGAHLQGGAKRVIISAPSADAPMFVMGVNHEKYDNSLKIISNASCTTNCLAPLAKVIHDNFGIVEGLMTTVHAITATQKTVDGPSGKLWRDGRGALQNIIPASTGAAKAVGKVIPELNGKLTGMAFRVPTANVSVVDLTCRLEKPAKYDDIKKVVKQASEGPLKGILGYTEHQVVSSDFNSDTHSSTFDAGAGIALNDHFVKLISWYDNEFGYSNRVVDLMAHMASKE
Genome polyprotein, sequence (P29990 2492-3391 limits assumed): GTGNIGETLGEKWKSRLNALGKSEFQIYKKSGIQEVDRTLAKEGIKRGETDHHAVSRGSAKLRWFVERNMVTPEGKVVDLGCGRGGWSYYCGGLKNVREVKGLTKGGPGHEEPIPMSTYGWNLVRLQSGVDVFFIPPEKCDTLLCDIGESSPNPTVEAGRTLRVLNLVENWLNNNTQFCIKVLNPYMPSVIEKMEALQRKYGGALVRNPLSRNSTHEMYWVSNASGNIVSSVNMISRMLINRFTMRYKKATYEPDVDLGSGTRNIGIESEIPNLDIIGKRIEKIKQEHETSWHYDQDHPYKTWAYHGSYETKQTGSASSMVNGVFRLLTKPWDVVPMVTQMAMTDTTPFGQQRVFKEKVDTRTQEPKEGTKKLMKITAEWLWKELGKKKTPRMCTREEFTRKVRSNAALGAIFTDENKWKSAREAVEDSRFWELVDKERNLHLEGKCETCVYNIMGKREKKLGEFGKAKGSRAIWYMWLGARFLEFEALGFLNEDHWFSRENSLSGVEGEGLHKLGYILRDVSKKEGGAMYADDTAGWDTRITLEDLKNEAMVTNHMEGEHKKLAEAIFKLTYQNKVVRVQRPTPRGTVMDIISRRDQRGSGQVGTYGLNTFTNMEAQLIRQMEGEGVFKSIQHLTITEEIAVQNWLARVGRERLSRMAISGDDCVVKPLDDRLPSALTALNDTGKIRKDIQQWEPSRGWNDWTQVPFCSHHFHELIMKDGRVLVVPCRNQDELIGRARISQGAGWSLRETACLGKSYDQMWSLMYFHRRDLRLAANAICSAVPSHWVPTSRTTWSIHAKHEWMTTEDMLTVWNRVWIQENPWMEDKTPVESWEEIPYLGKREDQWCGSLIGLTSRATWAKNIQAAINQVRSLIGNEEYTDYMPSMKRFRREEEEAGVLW
Induced myeloid leukemia cell differentiation protein Mcl-1, sequence (Q07820 whole entry): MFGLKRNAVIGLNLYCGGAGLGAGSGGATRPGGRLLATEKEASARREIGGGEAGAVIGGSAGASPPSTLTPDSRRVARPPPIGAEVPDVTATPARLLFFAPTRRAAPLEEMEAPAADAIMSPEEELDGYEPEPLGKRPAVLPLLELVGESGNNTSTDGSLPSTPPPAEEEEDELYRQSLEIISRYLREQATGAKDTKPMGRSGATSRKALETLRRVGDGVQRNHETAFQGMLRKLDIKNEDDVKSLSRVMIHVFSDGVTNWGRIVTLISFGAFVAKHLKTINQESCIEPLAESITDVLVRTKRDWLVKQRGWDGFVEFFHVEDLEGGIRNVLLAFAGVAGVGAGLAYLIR

## Cc1ccc(NC(=O)C2CCCCC2C(=O)O)cc1Cl (configuration not stated)
[1]
  IC50: > 100 µM (active)

## O=C(/C=C/Nc1ccc(Oc2ccccc2Cl)cc1)c1ccco1
[1]
  IC50: > 100 µM (active)

## O=C(Cn1nnc(-c2ccc3c(c2)OCO3)n1)NCc1ccco1
[2]
  IC50: 19.6 µM (active)
[3]
  IC50: 3 µM (not active)

## COc1ccc(CCNC(=O)c2ccc(CN3CCC(Cc4ccccc4)CC3)cc2)cc1
[1]
  IC50: > 100 µM (active)

## O=C1c2cccc3cccc(c23)N1Cc1ccc(F)cc1
[4]
  IC50: > 20 µM (inactive)
[5]
  IC50: 6.78 µM (active)
[6]
  IC50: 5.15 µM (active)

## COc1cc(C2C(C#N)=C(N)Oc3cc(C)oc(=O)c32)cc2c1OCO2 (configuration not stated)
[7]
  IC50: 26.2 µM (active)
[2]
  IC50: 13.6 µM (active)
[3]
  IC50: 9.24 µM (not active)

## COc1ccc(S(=O)(=O)n2cc(C(N)=O)c3ccccc32)cc1
[8]
  IC50: > 100 µM (not active)
[9]
  IC50: > 100 µM (inactive)

## COc1ccc(OCc2nn3c(-c4cccc(OC)c4)nnc3s2)cc1
[1]
  IC50: > 100 µM (active)

## Cn1c(C(=O)Nc2ccc3c(c2)OCO3)cc2c(=O)n(C)c3ccccc3c21
[7]
  IC50: 22.6 µM (active)
[2]
  IC50: > 50 µM (not active)
[3]
  IC50: 0.0468 µM (not active)

## CCCOc1ccc(C(=O)NC(=S)NNC(=O)c2c(-c3ccccc3)noc2C)cc1
[10]
  EC50: 0.137 µM (active)
[11]
  EC50: 0.596 µM (active)
[12]
  EC50: 2.66 µM (active)
[13]
  IC50: > 25 µM (active)
[14]
  CC50: 12.1 µM (active)

## Cc1sc2nc3ccc(N4CCCC4)nn3c(=O)c2c1C
[15]
  IC50: > 50 µM (not active)

## CN(Cc1ccccc1)C(=O)COC(=O)c1cc(-c2ccc(Cl)s2)nc2ccccc12
[4]
  IC50: > 20 µM (inactive)
[5]
  IC50: 11.8 µM (active)
[6]
  IC50: > 20 µM (inactive)

## O=S(=O)(Nc1ccc2ncccc2c1)c1ccccc1OC(F)(F)F
[8]
  IC50: > 100 µM (not active)
[9]
  IC50: > 100 µM (inactive)

## COc1ccc(Cl)cc1C(=O)Nc1ccccc1N1CCN(C)CC1
[12]
  EC50: 5.96 µM (active)

## CCOC(=O)C1=C(COC(=O)c2cc(OC)c(OC)c(OC)c2)NC(=O)NC1C (configuration not stated)
[4]
  IC50: > 20 µM (inactive)
[5]
  IC50: 6.85 µM (active)
[6]
  IC50: 8.55 µM (active)
[16]
  IC50: 11.2 µM (active)

## Cc1cc(SCC(=O)N/N=C/c2ccc(O)c(O)c2O)c(C)cc1Br
[17]
  EC50: > 150 µM (inconclusive)
[18]
  EC50: 11 µM (active)
[10]
  EC50: 3.27 µM (active)
[19]
  EC50: 11.6 µM (active)
[20]
  EC50: 13.9 µM (active)
[21]
  EC50: 26.7 µM (active)
[22]
  EC50: 1.45 µM (active)
[23]
  EC50: > 350 µM (not active)
[24]
  IC50: 5.65 µM (active)
[11]
  EC50: 6.34 µM (active)
[15]
  IC50: > 50 µM (not active)
[25]
  CC50: > 40 µM (active)
[26]
  IC50: 17.4 µM (active)
[27]
  CC50: 2.57 µM (active)
